Data: publication PMC5513037, “Examining the influence of specificity ligands and ATP-competitive ligands on the overall effectiveness of bivalent kinase inhibitors” (Proteome Science, 2017)

Tests used:
Experiment in all cases: KAM-matrix competition in K562 lysate;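 for 0.001 uM KAM: median log10 fold change of treatment over DMSO control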;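 for 0.01 uM KAM: median log10 fold change of treatment over DMSO control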;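 for 0.1 uM KAM: median log10 fold change of treatment over DMSO control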;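 for 1 uM KAM: median log10 fold change of treatment over DMSO control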;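 for 10 uM KAM: median log10 fold change of treatment over DMSO control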
Assay type in all cases: binding
RPS6KA1 = target: T1, RPS6KA1 (Homo sapiens, UniProt Q15418);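 for 0.001 uM KAM: median log10 fold change of treatment over DMSO control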;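 for 0.01 uM KAM: median log10 fold change of treatment over DMSO control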;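 for 0.1 uM KAM: median log10 fold change of treatment over DMSO control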;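 for 1 uM KAM: median log10 fold change of treatment over DMSO control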;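 for 10 uM KAM: median log10 fold change of treatment over DMSO control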
T1 construct: endogenous in cells; host or cells: K562
T1 sequence (Q15418 whole entry): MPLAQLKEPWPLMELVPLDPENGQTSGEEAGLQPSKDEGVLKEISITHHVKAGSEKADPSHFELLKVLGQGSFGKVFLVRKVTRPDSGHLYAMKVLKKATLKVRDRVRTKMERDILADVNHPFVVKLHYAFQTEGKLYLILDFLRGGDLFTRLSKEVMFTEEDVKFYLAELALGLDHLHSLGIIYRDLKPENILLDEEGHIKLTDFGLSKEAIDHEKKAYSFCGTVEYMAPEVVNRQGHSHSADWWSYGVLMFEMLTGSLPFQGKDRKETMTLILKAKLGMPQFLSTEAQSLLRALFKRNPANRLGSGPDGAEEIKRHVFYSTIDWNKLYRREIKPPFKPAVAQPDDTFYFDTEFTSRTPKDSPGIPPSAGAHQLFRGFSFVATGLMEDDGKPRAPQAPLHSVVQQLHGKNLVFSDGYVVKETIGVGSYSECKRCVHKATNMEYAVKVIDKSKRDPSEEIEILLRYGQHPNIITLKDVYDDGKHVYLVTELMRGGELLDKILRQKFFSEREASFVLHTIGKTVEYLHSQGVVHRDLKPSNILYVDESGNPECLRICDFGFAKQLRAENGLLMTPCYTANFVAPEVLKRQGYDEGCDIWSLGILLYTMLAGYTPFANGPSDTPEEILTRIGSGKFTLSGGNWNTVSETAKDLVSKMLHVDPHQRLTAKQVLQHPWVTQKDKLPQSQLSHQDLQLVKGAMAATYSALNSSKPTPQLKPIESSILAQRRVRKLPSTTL
Description: (§1) Supplement 12953_2017_125_MOESM1_ESM.zip/MS_Supp Info.xlsx, sheet "KAM" | column: 10 uM KAM; 1 uM KAM; 0.1 uM KAM; 0.01 uM KAM; 0.001 uM KAM; RB50

HUNK = target: T2, HUNK (Homo sapiens, UniProt P57058);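 for 0.001 uM KAM: median log10 fold change of treatment over DMSO control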;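 for 0.01 uM KAM: median log10 fold change of treatment over DMSO control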;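 for 0.1 uM KAM: median log10 fold change of treatment over DMSO control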;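 for 1 uM KAM: median log10 fold change of treatment over DMSO control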;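 for 10 uM KAM: median log10 fold change of treatment over DMSO control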
T2 construct: endogenous in cells; host or cells: K562
T2 sequence (P57058 1-714): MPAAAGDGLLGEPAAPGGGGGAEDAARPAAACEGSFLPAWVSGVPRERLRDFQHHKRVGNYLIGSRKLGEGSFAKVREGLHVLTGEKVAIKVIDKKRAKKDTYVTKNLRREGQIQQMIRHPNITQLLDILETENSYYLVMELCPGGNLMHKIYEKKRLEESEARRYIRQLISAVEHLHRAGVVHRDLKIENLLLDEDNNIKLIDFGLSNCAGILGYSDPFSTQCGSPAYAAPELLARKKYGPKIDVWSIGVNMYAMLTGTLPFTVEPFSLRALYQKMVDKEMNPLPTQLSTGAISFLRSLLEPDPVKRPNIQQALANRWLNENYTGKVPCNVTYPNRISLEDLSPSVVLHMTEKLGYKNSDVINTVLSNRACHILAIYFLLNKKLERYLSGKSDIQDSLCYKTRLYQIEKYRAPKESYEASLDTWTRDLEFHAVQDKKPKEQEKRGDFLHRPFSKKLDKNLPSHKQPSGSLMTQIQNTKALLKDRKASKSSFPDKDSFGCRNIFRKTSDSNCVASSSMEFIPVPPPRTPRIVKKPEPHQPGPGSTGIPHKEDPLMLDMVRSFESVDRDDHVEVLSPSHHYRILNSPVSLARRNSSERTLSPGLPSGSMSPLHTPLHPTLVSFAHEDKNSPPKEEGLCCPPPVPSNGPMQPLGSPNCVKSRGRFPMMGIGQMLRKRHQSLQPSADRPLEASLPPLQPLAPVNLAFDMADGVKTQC
Description: as §1

TP53RK = target: T3, TP53RK (Homo sapiens, UniProt Q96S44);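 for 0.001 uM KAM: median log10 fold change of treatment over DMSO control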;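 for 0.01 uM KAM: median log10 fold change of treatment over DMSO control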;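 for 0.1 uM KAM: median log10 fold change of treatment over DMSO control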;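 for 1 uM KAM: median log10 fold change of treatment over DMSO control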;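 for 10 uM KAM: median log10 fold change of treatment over DMSO control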
T3 construct: endogenous in cells; host or cells: K562
T3 sequence (Q96S44 1-253): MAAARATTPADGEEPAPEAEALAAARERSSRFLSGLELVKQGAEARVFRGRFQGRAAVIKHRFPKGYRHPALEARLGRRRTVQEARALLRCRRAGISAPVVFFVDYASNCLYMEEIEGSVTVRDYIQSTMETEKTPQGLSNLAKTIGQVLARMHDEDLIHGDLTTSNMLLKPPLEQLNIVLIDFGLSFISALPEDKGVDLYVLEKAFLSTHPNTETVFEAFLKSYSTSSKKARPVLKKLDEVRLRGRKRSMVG
Description: as §1

MAPK3 = target: T4, MAPK3 (Homo sapiens, UniProt P27361)
T4 construct: endogenous in cells; host or cells: K562
Description: as §1

MAPK1 = target: T5, MAPK1 (Homo sapiens, UniProt P28482)
T5 construct: endogenous in cells; host or cells: K562
Description: as §1

MAP3K7 = target: T6, MAP3K7 (Homo sapiens, UniProt O43318)
T6 construct: endogenous in cells; host or cells: K562 cells (lysate)
T6 sequence (O43318 1-606): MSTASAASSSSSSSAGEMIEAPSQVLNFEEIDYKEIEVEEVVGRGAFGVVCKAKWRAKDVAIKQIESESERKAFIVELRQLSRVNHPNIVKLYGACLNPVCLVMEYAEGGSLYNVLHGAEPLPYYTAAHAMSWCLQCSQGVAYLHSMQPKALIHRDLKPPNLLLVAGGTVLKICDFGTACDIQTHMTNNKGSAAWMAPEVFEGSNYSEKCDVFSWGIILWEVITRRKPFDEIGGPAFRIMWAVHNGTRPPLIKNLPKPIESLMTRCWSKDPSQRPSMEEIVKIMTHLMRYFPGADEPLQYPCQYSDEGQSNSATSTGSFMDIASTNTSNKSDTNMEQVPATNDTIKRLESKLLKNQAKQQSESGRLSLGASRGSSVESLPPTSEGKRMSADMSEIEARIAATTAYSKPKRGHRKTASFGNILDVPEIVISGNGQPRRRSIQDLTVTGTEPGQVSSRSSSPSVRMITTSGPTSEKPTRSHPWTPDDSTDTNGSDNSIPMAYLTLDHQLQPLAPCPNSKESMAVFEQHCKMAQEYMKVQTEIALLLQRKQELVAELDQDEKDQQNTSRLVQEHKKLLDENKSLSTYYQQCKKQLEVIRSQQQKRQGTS
Description: as §1

PRKCQ = target: T7, PRKCQ (Homo sapiens, UniProt Q04759)
T7 construct: endogenous in cells; host or cells: K562
Description: as §1

SPEG = target: T8, SPEG (Homo sapiens, UniProt Q15772);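 for 0.001 uM KAM: median log10 fold change of treatment over DMSO control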;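 for 0.01 uM KAM: median log10 fold change of treatment over DMSO control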;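 for 0.1 uM KAM: median log10 fold change of treatment over DMSO control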;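 for 1 uM KAM: median log10 fold change of treatment over DMSO control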;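 for 10 uM KAM: median log10 fold change of treatment over DMSO control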
T8 construct: endogenous in cells; host or cells: K562
T8 sequence (Q15772 whole entry): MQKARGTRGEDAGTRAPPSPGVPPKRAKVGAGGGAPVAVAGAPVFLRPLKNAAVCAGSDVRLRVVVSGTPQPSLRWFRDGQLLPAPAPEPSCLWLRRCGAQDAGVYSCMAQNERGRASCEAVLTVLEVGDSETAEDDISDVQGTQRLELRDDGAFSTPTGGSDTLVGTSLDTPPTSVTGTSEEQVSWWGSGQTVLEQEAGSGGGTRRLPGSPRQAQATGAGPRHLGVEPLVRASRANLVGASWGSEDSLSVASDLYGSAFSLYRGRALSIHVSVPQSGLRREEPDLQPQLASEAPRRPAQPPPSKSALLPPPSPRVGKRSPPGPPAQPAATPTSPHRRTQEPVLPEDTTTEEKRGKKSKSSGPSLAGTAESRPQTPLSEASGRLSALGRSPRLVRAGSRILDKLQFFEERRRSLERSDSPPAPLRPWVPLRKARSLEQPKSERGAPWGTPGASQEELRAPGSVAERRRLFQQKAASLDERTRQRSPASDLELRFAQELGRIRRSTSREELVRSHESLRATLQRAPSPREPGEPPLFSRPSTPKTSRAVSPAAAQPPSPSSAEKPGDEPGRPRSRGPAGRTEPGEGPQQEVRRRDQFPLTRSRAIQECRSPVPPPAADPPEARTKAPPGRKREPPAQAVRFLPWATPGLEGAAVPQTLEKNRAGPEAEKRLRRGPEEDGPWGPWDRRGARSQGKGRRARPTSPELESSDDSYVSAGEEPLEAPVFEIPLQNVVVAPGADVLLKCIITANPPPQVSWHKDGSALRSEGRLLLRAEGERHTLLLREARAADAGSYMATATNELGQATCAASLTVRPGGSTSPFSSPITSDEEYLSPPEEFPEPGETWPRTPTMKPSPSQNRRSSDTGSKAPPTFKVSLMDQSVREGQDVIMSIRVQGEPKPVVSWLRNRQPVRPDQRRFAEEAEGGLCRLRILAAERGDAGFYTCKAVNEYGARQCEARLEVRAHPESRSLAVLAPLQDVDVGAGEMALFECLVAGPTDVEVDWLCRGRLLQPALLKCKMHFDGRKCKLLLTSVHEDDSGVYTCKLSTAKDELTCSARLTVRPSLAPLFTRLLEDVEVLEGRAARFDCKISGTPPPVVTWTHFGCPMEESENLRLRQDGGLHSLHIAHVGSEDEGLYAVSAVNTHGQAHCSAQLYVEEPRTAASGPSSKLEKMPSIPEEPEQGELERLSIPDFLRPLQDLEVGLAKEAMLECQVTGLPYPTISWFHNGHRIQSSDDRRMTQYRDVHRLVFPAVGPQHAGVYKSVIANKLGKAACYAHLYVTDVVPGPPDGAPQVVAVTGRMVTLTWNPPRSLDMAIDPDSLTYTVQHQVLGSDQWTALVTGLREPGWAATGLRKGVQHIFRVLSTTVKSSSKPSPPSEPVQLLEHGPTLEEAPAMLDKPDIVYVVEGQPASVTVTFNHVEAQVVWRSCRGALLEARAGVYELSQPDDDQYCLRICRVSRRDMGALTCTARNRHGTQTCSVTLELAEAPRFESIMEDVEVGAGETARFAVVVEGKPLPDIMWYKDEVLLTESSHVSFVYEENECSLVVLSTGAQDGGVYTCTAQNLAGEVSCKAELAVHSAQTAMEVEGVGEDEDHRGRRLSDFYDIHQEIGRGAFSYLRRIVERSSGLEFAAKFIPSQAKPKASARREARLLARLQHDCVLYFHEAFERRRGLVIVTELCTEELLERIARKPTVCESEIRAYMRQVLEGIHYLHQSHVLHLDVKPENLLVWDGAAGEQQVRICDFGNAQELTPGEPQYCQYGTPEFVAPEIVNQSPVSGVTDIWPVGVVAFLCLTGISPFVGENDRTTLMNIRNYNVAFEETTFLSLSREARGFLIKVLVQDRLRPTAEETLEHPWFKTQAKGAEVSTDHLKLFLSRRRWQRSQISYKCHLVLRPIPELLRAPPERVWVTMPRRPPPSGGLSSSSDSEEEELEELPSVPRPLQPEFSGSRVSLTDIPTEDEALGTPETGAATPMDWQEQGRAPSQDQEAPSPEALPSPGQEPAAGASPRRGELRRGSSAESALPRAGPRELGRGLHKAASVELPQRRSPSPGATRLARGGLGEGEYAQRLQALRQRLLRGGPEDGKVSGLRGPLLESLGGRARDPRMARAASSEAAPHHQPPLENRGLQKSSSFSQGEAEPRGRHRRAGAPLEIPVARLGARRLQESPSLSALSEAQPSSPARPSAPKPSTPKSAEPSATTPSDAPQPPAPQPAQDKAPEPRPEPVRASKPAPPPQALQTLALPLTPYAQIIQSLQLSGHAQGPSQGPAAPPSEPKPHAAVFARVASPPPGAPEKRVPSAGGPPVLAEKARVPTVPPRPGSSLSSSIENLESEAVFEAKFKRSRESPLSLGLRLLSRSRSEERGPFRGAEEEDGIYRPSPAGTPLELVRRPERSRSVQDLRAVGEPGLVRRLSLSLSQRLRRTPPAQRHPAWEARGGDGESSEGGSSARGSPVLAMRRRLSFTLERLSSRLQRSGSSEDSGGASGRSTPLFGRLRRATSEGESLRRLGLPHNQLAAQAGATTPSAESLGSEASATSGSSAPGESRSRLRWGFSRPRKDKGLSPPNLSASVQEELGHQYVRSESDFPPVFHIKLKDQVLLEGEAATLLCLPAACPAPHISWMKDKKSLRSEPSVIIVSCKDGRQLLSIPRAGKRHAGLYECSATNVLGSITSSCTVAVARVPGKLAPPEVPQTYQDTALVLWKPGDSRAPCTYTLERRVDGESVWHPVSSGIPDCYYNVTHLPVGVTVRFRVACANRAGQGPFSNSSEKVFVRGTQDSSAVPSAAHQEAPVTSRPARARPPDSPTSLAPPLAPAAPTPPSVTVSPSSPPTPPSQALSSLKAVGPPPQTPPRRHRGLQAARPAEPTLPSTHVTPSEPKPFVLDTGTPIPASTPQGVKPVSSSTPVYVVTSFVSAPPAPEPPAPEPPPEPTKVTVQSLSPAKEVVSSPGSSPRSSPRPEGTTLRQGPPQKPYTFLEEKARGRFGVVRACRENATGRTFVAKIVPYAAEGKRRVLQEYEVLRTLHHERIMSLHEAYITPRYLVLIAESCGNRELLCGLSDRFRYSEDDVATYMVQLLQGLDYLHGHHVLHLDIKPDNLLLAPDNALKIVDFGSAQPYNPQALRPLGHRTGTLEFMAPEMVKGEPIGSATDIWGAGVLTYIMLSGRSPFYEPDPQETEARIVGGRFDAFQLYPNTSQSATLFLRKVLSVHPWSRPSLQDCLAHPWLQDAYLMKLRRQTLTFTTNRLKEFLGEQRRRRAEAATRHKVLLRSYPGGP
Description: as §1

FER = target: T9, FER (Homo sapiens, UniProt P16591)
T9 construct: endogenous in cells; host or cells: K562 lysate
T9 sequence (P16591 whole entry): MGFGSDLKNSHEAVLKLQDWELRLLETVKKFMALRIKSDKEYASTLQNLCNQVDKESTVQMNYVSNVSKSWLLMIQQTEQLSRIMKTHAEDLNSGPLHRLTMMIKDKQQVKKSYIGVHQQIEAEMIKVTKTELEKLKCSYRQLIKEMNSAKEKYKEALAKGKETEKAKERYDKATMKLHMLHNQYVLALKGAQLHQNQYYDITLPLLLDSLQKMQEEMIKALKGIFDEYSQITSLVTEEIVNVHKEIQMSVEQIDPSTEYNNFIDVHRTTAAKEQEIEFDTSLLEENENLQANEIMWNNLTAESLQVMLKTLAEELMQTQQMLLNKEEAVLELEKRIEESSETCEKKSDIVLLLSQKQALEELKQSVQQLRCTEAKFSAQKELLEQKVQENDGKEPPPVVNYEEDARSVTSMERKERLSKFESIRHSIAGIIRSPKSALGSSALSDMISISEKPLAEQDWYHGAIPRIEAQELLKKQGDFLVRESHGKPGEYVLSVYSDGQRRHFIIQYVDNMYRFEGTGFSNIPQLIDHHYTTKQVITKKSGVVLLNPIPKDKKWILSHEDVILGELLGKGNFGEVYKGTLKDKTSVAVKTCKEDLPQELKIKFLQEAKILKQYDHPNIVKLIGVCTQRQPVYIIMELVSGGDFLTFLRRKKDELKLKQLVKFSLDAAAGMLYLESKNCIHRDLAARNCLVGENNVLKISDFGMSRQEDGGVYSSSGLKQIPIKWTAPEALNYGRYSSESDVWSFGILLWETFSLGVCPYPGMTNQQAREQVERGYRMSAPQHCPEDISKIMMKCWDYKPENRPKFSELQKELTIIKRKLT
Description: as §1

[1] = KAM 0.001-10 uM, read-out: RB50 (the source's name)
[2] = read-out: RB50 (the source's name)

## N#CCc1ccc(Nc2nc(NCCCN)cc(Nc3cc(C4CC4)[nH]n3)n2)cc1 [KAM]
RPS6KA1; [1]
  IC50: > 10 µM
RPS6KA1; relative to 0 uM KAM = 0
  0.001 uM KAM: -0.05187
  0.01 uM KAM: 0.03804
  0.1 uM KAM: -0.06196
  1 uM KAM: -0.09025
  10 uM KAM: -0.1209
HUNK; [1]
  IC50: > 10 µM
HUNK; relative to 0 uM KAM = 0
  0.001 uM KAM: 0.08544
  0.01 uM KAM: 0.04291
  0.1 uM KAM: 0.1545
  1 uM KAM: 0.0644
  10 uM KAM: 0.1031
TP53RK; [1]
  IC50: > 10 µM
TP53RK; relative to 0 uM KAM = 0
  0.001 uM KAM: 0.009964
  0.01 uM KAM: 0.004194
  0.1 uM KAM: 0.08221
  1 uM KAM: 0.04146
  10 uM KAM: -0.01189
MAPK3; 0.001 uM KAM
  median Log10 fold change: -0.06334
MAPK3; 0.01 uM KAM
  median Log10 fold change: -0.0563
MAPK3; 0.1 uM KAM
  median Log10 fold change: -0.1467
MAPK3; 1 uM KAM
  median Log10 fold change: -0.2435
MAPK3; 10 uM KAM
  median Log10 fold change: -0.361
MAPK3; [2]
  IC50: 2.36 µM
MAPK1; 0.001 uM KAM
  median Log10 fold change: -0.0422
MAPK1; 0.01 uM KAM
  median Log10 fold change: -0.03333
MAPK1; 0.1 uM KAM
  median Log10 fold change: -0.1132
MAPK1; 1 uM KAM
  median Log10 fold change: -0.2315
MAPK1; 10 uM KAM
  median Log10 fold change: -0.3482
MAPK1; [2]
  IC50: 3.18 µM
MAP3K7; 0.001 uM KAM
  median Log10 fold change: -0.02589
MAP3K7; 0.01 uM KAM
  median Log10 fold change: -0.01486
MAP3K7; 0.1 uM KAM
  median Log10 fold change: -0.1357
MAP3K7; 1 uM KAM
  median Log10 fold change: -0.3563
MAP3K7; 10 uM KAM
  median Log10 fold change: -0.511
MAP3K7; [2]
  IC50: 0.786 µM
PRKCQ; 0.001 uM KAM
  median Log10 fold change: -0.05924
PRKCQ; 0.01 uM KAM
  median Log10 fold change: -0.02167
PRKCQ; 0.1 uM KAM
  median Log10 fold change: -0.1204
PRKCQ; 1 uM KAM
  median Log10 fold change: -0.1965
PRKCQ; 10 uM KAM
  median Log10 fold change: -0.3734
PRKCQ; [2]
  IC50: 3.6 µM
SPEG; [1]
  IC50: > 10 µM
SPEG; relative to 0 uM KAM = 0
  0.001 uM KAM: -0.04699
  0.01 uM KAM: 0.03576
  0.1 uM KAM: -0.007872
  1 uM KAM: 0.04064
  10 uM KAM: 0.01523
FER; 0.001 uM KAM
  median Log10 fold change: -0.01643
FER; 0.01 uM KAM
  median Log10 fold change: -0.02602
FER; 0.1 uM KAM
  median Log10 fold change: -0.1873
FER; 1 uM KAM
  median Log10 fold change: -0.4903
FER; 10 uM KAM
  median Log10 fold change: -0.6195
FER; [2]
  IC50: 0.319 µM
